We go through 22 compounds from patent US5574033A, “Heterocyclic compound and cardiotonic agent containing the same as effective component” (Zenyaku Kogyo Kabushiki Kaisha, priority 1991, dated 1996).

Structures can show the parent of a compound that is named as a salt.

In one series the test system is right atria. Briefly: Pharmacological Test 1: spontaneous contraction of isolated right atria (chronotropic effect). Set-up: species or system male Hartley guinea pig. The following applies: Cavia porcellus; 3×10^-5 M; percentage of atrial rate after injection, rate before injection = 100%; 30° C. The protocol:
(§1) Nos. of the compounds in the pharmacological tests 1 and 2 correspond to those in Examples referred to hereinafter.
(§2) A heart was removed from a male Hartley guinea pig (having a body weight of about 400 g or so) and a right atrium and papillary muscles of a right ventricle were separated from the removed heart. These preparations were suspended in 15 ml of Magnus' bath under load of 0.5 g (papillary muscles) or 1.0 g (right atria). Contraction of papillary muscles upon electric stimulation (1 Hz, 5 msec, 1.5×threshold voltage) and spontaneous contraction of the right atria were recorded through a transducer (manufactured by Orientec, T7-8-240) by a polygraph system (manufactured by NIHONKOHDEN, RMP-6008 and WT-685G).
(§3) Krebs-Henseleit solution was used as nutritive liquid bubbled with mixed gases of 95% O2 with 5% CO2 at 30° C. The value of inotropic effect is a percentage of increment of contractile force by samples when that by isoprotelenol (1×10^-8 M) is considered to be 100%. The value of chronotropic effect is a percentage of atrial rate after the injection of samples when the atrial rate before the injection is considered to be 100%.

Series [1] concerns papillary muscles of a right ventricle. In words: Pharmacological Test 1: contraction of isolated right ventricular papillary muscles upon electric stimulation (inotropic effect). Set-up: species or system male Hartley guinea pig. The following applies: 3×10^-5 M; percentage of increment of contractile force, isoprotelenol (1×10^-8 M) = 100%; 1 Hz stimulation, 30° C. As to the method:
as §1, §2, §3

Series [2] is described as follows: Pharmacological Test 2: acute toxicity, tail vein administration, up-and-down method. The following applies: mouse, in vivo, iv, tail vein of ddY mice, in physiological saline solution. As to the method:
as §1
The acute toxicity was determined by administrating the sample compound, which was dissolved by physiological saline solution, in the tail vein of ddY mice (5-weeks-old, having a body weight of 25 to 28 g) and LD50 was obtained by the up-and-down method.

Take `COc1ccc(C(O)CN2CC=C(C3=NNC(=O)CC3)CC2)cc1` (stereo not shown) [Compound 49, 4,5-Dihydro-6-[1-[2-hydroxy-2-(4-methoxyphenyl)ethyl]-1,2,5,6-tetrahydropyrid-4-yl]pyridazin-3(2H)-one]: in the series on right atria, the activity at 30 µM amounted to 87.6%. For the same compound, the “Inotropic Effect” value in series [1] is 27.7%. For `O=C1CCC(C2=CCN(CC(O)c3ccccc3Cl)CC2)=NN1` (stereo not shown) [Compound 50, 6-[1-[2-(2-Chlorophenyl)-2-hydroxyethyl]-1,2,5,6-tetrahydropyrid-4-yl]-4,5-dihydropyridazin-3 (2H)-one] the same measures were 98.6% and 38.9%. Regarding `O=C1CCC(C2=CCN(CC(O)c3ccc(F)cc3)CC2)=NN1` (stereo not shown) [Compound 51, 6-[1-[2-(4-Fluorophenyl)-2-hydroxyethyl]-1,2,5,6-tetrahydropyrid-4-yl]-4,5-dihydropyridazin-3 (2H)-one], the activity at 30 µM in the series on right atria amounted to 91.4%. The “Inotropic Effect” value in series [1] was 36.8%. As to `O=C1CCC(C2=CCN(CC(O)c3ccc([N+](=O)[O-])cc3)CC2)=NN1` (stereo not shown) [Compound 53, 4,5-Dihydro-6-[1-[2-hydroxy-2-(4-nitrophenyl)ethyl]-1,2,5,6-tetrahydropyrid-4-yl]pyridazin-3 (2H)-one], in the series with right atria, the activity at 30 µM came out at 87.8%. Moreover, in series [1], the “Inotropic Effect” value is 102.9%. On the same counts, the results for `O=C1CCC(C2=CCN(CC(O)c3ccccc3C(F)(F)F)CC2)=NN1` (stereo not shown) [Compound 54, 4,5-Dihydro-6-[1-[2-hydroxy-2-[2-(trifluoromethyl)phenyl]ethyl]-1,2,5,6-tetrahydropyrid-4-yl]pyridazin-3 (2H) -one] are 97.3% and 25.2%. For the compound `O=C1CNC(C2=CCN(CC(O)c3ccc(Cl)cc3)CC2)=NN1` (stereo not shown) [Compound 57, 3-[1-[2-(4-Chlorophenyl)-2-hydroxyethyl]-1,2,5,6-tetrahydropyrid-4-yl]-4,5-dihydro-1,2,4-triazin-6 (1H)-one], in the series with right atria, the activity at 30 µM stood at 94.9%. In addition, in series [1], the “Inotropic Effect” value turned out to be 46.8%.

Take `O=C1CNC(C2=CCN(CC(O)c3ccc([N+](=O)[O-])cc3)CC2)=NN1` (stereo not shown) [Compound 60, 4,5-Dihydro-3-[1-[2-hydroxy-2-(4-nitrophenyl)ethyl]-1,2,5,6-tetrahydropyrid-4-yl]-1,2,4-triazin-6(1H)-one]: the activity at 30 µM in the series with right atria stood at 92.6%. Besides, the “Inotropic Effect” value in series [1] stood at 43.8%.

Regarding `N#Cc1ccc(C(O)CN2CC=C(C3=NNC(=O)CN3)CC2)cc1` (stereo not shown) [Compound 64, 3-[1-[2-(4-Cyanophenyl)-2-hydroxyethyl]-1,2,5,6-tetrahydropyrid-4-yl]-4,5-dihydro-1,2,4-triazin-6(1H)-one], the activity at 30 µM in the series on right atria amounted to 93%. In series [1], the “Inotropic Effect” value came out at 23.8%.

Turning to `O=C1NN=C(C2=CCN(CC(O)c3ccc4ccccc4c3)CC2)CS1` (stereo not shown) [Compound 69, 5-[1-[2-Hydroxy-2-(2-naphthyl)ethyl]-1,2,5,6-tetrahydropyrid-4-yl]-3H, 6H-1,3,4-thiadiazin-2-one], the activity at 30 µM with right atria was found to be 79.7%. Also, the “Inotropic Effect” value in series [1] amounted to 28.6%. With `COc1ccc(C(CN2CC=C(C3=NNC(=O)CS3)CC2)OC)cc1` (stereo not shown) [Compound 70, 2-[1-[2-Methoxy-2-(4-methoxyphenyl)ethyl]-1,2,5,6-tetrahydropyrid-4-y1]-4H,6H-1,3,4-thiadiazin-5-one], the activity at 30 µM in the series with right atria is 99.2%. Further, the “Inotropic Effect” value in series [1] was 56.0%. In the case of `COc1ccc(C(CN2CC=C(C3=NNC(=O)CS3)CC2)OC(C)C)cc1` (stereo not shown) [Compound 71, 2-[1-[2-Isopropoxy-2-(4-methoxyphenyl)ethyl]-1,2,5,6-tetrahydropyrid-4-yl]-4H,6H-1,3,4-thiadiazin-5-one], in the series on right atria, the activity at 30 µM came out at 98.7%. In addition, in series [1], the “Inotropic Effect” value came to 25.3%. On the same counts, the results for `O=C1CSC(c2ccncc2)=NN1` [a, 2-(4-Pyridyl)-4H,6H-1,3,4-thiadiazin-5-one, reference compound] are 159% and 22.2%.

For the compound `O=C1NN=C(c2ccncc2)CS1` [b, 5-(4-Pyridyl)-3H,6H-1,3,4-thiadiazin-2-one, reference compound], the activity at 30 µM in the series with right atria was 117%. Also, the “Inotropic Effect” value in series [1] worked out at 36.2%. On the same counts, the results for `O=C1CCC(c2ccncc2)=NN1` [c, 4,5-Dihydro-6-(4-pyridyl)-pyridazin-3(2H)-one, reference compound] are 110% and 7.3%. On the same counts, the results for `O=C1CNC(c2ccncc2)=NN1` [d, 4,5-Dihydro-3-(4-pyridyl)-1,2,4-triazin-6(1H)-one, reference compound] are 112% and 4.6%. In turn, `O=C1CSC(C2=CCN(CC(O)c3ccc(Cl)cc3)CC2)=NN1` (stereo not shown) [hydrochloride of compound 13, Hydrochloride of 2-[1-[2-(4-chlorophenyl)-2-hydroxyethyl]-1,2,5,6-tetrahydropyrid-4-yl]-4H,6H-1,3,4-thiadiazin-5-one] gave a 50% lethal dose (LD50) in series [2] of 101 mg/kg. Compound `Cc1cccc(C(O)CN2CC=C(C3=NNC(=O)CS3)CC2)c1` (stereo not shown) [hydrochloride of compound 20, Hydrochloride of 2-[1-[2-hydroxy-2-(3-methylphenyl)ethyl]-1,2,5,6-tetrahydropyrid-4-yl]-4H,6H-1,3,4-thiadiazin-5-one] showed a 50% lethal dose (LD50) in series [2] of 173 mg/kg. `Cc1ccc(C(O)CN2CC=C(C3=NNC(=O)CS3)CC2)cc1` (stereo not shown) [hydrochloride of compound 21, Hydrochloride of 2-[1-[2-hydroxy-2-(4-methylphenyl)ethyl]-1,2,5,6-tetrahydropyrid-4-yl]-4H,6H-1,3,4-thiadiazin-5-one]: the LD50 in series [2] was found to be 226 mg/kg. Consider `Cc1ccc(C(O)CN2CC=C(C3=NNC(=O)CS3)CC2)c(C)c1` (stereo not shown) [hydrochloride of compound 25, Hydrochloride of 2-[1-[2-hydroxy-2-(2,4-dimethylphenyl)ethyl]-1,2,5,6-tetrahydropyrid-4-yl]-4H,6H-1,3,4-thiadiazin-5-one], for which the LD50 in series [2] amounted to 135 mg/kg. Against the preceding compound, the LD50 is about 1.7-fold lower. Same read-out and setting: in the case of `O=C1CSC(C2=CCN(CC(O)c3cccc([N+](=O)[O-])c3)CC2)=NN1` (stereo not shown) [hydrochloride of compound 30, Hydrochloride of 2-[1-[2-hydroxy-2-(3-nitrophenyl)ethyl]-1,2,5,6-tetrahydropyrid-4-yl]-4H,6H-1,3,4-thiadiazin-5-one] it was 160 mg/kg; in that of `O=C1CSC(C2=CCN(CC(O)c3ccc(F)cc3)CC2)=NN1` (stereo not shown) [hydrochloride of compound 35, Hydrochloride of 2-[1-[2-(4-fluorophenyl)-2-hydroxyethyl]-1,2,5,6-tetrahydropyrid-4-yl]-4H,6H-1,3,4-thiadiazin-5-one], 226 mg/kg; in that of `O=C1CNC(C2=CCN(CC(O)c3ccc([N+](=O)[O-])cc3)CC2)=NN1` (stereo not shown) [hydrochloride of compound 60, Hydrochloride of 4,5-dihydro-3-[1-[2-hydroxy-2-(4-nitrophenyl)ethyl]-1,2,5,6-tetrahydropyrid-4-yl]-1,2,4-triazin-6(1H)-one], 226 mg/kg.
